Laboratory results taken from patent publication US4845102A, “Therapeutic agent for the treatment of peptic ulcer disease” (Hoechst Japan Limited, priority 1986, dated 1989).

Legend:
[1] = test system: ethanol-induced gastric ulcer; experiment: Protective effect on ethanol-induced gastric ulcer in rats; type: in vivo, Male Sprague-Dawley rats; conditions: for Ulcer index: mean ± S.E.
Protocol: 1.2 Protective effect on ethanol-induced gastric ulcer in rats
Male Sprague-Dawley rats weighing 250-300 g were used in groups of 5-21. After fasting overnight, the animals were given orally the compounds. Thirty minutes later they received absolute ethanol (1 ml/body) orally and were sacrificed after 60 minutes. The stomach was removed and examined for erosions. The ulcer index was obtained in the same way as under 1.1.

in vivo [2] = conditions: mouse, mice
[3] = test system: stress-induced gastric ulcer; experiment: Protective effect on gastric ulcer induced by restraint plus water-immersion stress in rats; type: in vivo, Male Sprague-Dawley rats; conditions: for Ulcer index: mean ± S.E.
Protocol: 1.1 Protective efrfect on gastric ulcer induced by restraint plus water-immersion stress in rats
Male Sprague-Dawley rats weighing 250-300 g wer eused in groups of 5-24. The animals were given the compounds by the oral route after fastin overnight. Immediately, under light ether anesthesia they were placed in a restraint box and immersed in water at 20° C. for 6 to 7 hours. Then the animals were sacrificed, and their stomachs were isolated, inflated with 4 ml of 1 % formalin for 10 minutes, opened along the greater cruvature, and examined for the rpesence of agstric erosions. The longest axis of each erosion induced on the glandular section of the stomach was measured, and the sum of the lengths was defined as an ulcer index.

peptic ulcer disease [4] = conditions: Vorobyev and Samsonov, Ter. Ark. 57, 52-55, 1985; cited from earlier work
gastric hemorrhage = experiment: Inhibitory effect on gastric hemorrhage in rats (pylorus ligation, 2-deoxy-D-glucose plus indomethacin); type: in vivo, Male Sprague-Dawley rats; conditions: for Amount of hemoglobin: mean ± S.E.; for effect on gastric hemorrhage (in words): rats
Protocol: 1.3 Inhibitory effect on gastric hemorrhage in rats
The method of Maeda-Hagiwara and Watanabe (Eur. J. Pharmacol. 89, 243-250, 1983) was used. Male Sprague-Dawley rats weighing 250-300 g were employed in groups of 10-14. After 24 hours fasting, the pylorus was ligated under light ether anesthesia. Then, 200 mg/kg of 2-deoxy-D-glucose was administered intravenously in combination with 40 mg/kg of indomethacin suspended in 0.5 % carboxymethylcellulose by the subcutaneous route. After 1 hour the test compounds wer einjected intraperitoneally. Two hours later, the animals were exsanguinated under ether anesthesia and their stomachs were isolated. Gastric juice was collected and filtered. The amount of discharged blood was expressed as that of hemoglobin in mg per rat.

[5] = Toxicity, general statements; conditions: in vivo
in vivo [6] = conditions: rat, rats
rats = experiment: 3-month oral toxicity study in rats; type: in vivo; conditions: 3 months
Protocol: Compound 2 was administered orally to rats at 150 and 50 mg/kg/day for 3 months. This study included: observation of toxic signs during the treatment; macroscopic and microscopic examinations of main organs including the brain, heart, liver, kidney, bone marrow, adrenal, and lung; and biochemical tests of the blood and urine.

peptic ulcer disease [7] = experiment: Antiulcer effect, general statements; conditions: in vivo
[8] = c.f. U.S. Pat. No. 4,289,776; cited from earlier work
[9] = Table 5 (efficacy comparison), 10 mg/kg po
[10] = ip, intraperitoneal administration
[11] = Table 3 (efficacy comparison), 10 mg/kg po

Row | SMILES | Inhibition [1, 9] | Ulcer index [1, 9] | LD50 (in vivo [2]; [10]) | Inhibition [3, 11] | Ulcer index [3, 11] | Amount of hemoglobin (gastric hemorrhage; 25 mg/kg i.p.) | Amount of hemoglobin (gastric hemorrhage; 50 mg/kg i.p.) | effect on gastric hemorrhage (in words) (gastric hemorrhage) | Inhibition ([1]; Table 4, 10 mg/kg po) | Ulcer index ([1]; Table 4, 10 mg/kg po) | Inhibition ([1]; Table 4, 25 mg/kg po) | Ulcer index ([1]; Table 4, 25 mg/kg po) | Inhibition ([1]; Table 4, 50 mg/kg po) | Ulcer index ([1]; Table 4, 50 mg/kg po) | Inhibition ([3]; Table 2, 10 mg/kg po) | Ulcer index ([3]; Table 2, 10 mg/kg po) | Inhibition ([3]; Table 2, 25 mg/kg po) | Ulcer index ([3]; Table 2, 25 mg/kg po) | also measured
1 | CCn1cnc2c1c(=O)n(CCCCC(C)=O)c(=O)n2C [Compound 1] | 84.6% | 25.3 ± 10.9 mm | 250 to 500 mg/kg | 77.2% | 4.5 ± 0.9 mm | – | – | – | – | – | – | – | – | – | – | – | – | – | –
2 | CCCn1cnc2c1c(=O)n(CCCC(C)=O)c(=O)n2C [Compound 3] | – | – | 300 to 600 mg/kg | 67.0% | 6.5 ± 1.6 mm | – | – | – | – | – | – | – | – | – | – | – | – | – | –
3 | CC(=O)CCCCn1c(=O)c2c(ncn2C)n(C)c1=O [Pentoxifylline, 1,2,3,6-tetrahydro-3,7-dimethyl-1-(5-oxohexyl)-purine-2,6-dione, reference compound] | 78.8% | 34.9 ± 10.9 mm | – | 12.7% | 17.2 ± 5.6 mm | 19.6 ± 2.0 mg/rat | 17.3 ± 2.3 mg/rat | did not have a statistically significant effect | 50.3% | 65.8 ± 12.1 mm | 63.9% | 47.8 ± 15.3 mm | 85.9% | 18.7 ± 6.2 mm | 25.8% | 24.4 ± 4.0 mm | 52.0% | 15.8 ± 4.1 mm | antiulcer effect reported in the literature (in words) (peptic ulcer disease [4]): antiulcer effects; Inhibition ([3]; Table 2, 50 mg/kg po): 83.9%; Ulcer index ([3]; Table 2, 50 mg/kg po): 5.3 ± 1.2 mm
4 | CCCn1cnc2c1c(=O)n(CCCCC(C)=O)c(=O)n2C [Compound 2, 1,2,3,6-tetrahydro-3-methyl-1-(5-oxohexyl)-7-propyl-purine-2,6-dione] | 86.9% | 21.6 ± 4.6 mm | 296 mg/kg | 56.3% | 8.6 ± 2.3 mm | 14.4 ± 1.4 mg/rat | 12.5 ± 1.6 mg/rat | inhibitory effects on gastric hemorrhage | 61.5% | 51.0 ± 13.2 mm | 75.4% | 32.6 ± 9.1 mm | 89.7% | 13.6 ± 9.3 mm | 64.3% | 13.3 ± 5.4 mm | 75.6% | 9.1 ± 3.1 mm | toxicity (in words) [5]: low toxicity; LD50 (in vivo [6]; intravenous injection): 180 mg/kg; LD50 (in vivo [6]; oral dosing): 1150 mg/kg; Amount of hemoglobin (gastric hemorrhage; 12.5 mg/kg i.p.): 27.0 ± 3.0 mg/rat; toxic signs, macroscopic and microscopic organ examinations, biochemical tests of blood and urine (rats; 50 mg/kg/day): no abnormalities at either level of treatment; toxic signs, macroscopic and microscopic organ examinations, biochemical tests of blood and urine (rats; 150 mg/kg/day): no abnormalities at either level of treatment except that slight salivation occurred at 150 mg/kg/day; antiulcer effect (in words) (peptic ulcer disease [7]): improving effects on gastric ulcer; LD50 (in vivo [2]; intravenous injection): 168 mg/kg; LD50 (in vivo [2]; oral dosing): 900 mg/kg; pharmacological effects shown previously (in words) [8]: dilate cerebral blood vessels, improve cerebral energy metabolism, red blood cell deformability, and cerebral edema, and decrease blood viscosity; Inhibition ([3]; Table 2, 5 mg/kg po): 39.4%; Ulcer index ([3]; Table 2, 5 mg/kg po): 22.6 ± 9.8 mm; effectiveness relative to pentoxifylline in improving stress-induced gastric ulcers ([3]; versus pentoxifylline): 2 to 3 times
